Results on 13 compounds are retold here after patent EP3917907B1, “MODULATORS OF POTASSIUM ION CHANNELS AND USES THEREOF” (Universitá Degli Studi Di Salerno, priority 2019, dated 2020).

A short description of data set [1]: Solution stability (HPLC, extracellular solution, ambient temperature). Conditions: percentage of degradation after 6 h at ambient temperature; 100 ppm in extracellular solution pH 7.4. The data set is classed as physicochemical. As to the method:
(§1) In order to study the solution stability and photostability of the potassium channel modulators object of the present invention, a stock solution of the proper analyte (1 mg/mL) in dimethylsulfoxide (DMSO) has been prepared. This solution has been then diluted to a concentration of 100 ppm using extracellular solution containing (in mM): 138 NaCl, 2 CaCl2, 5.4 KCl, 1 MgCl2, 10 glucose, and 10 HEPES, at pH 7.4, adjusted with NaOH. To measure solution stability, the diluted solutions have been maintained at ambient temperature for 6 h. To measure photostability, the diluted solutions have been irradiated for 6 h using a Oriel Sol3A Solar Simulator (Newport corporation, Irvine, CA, USA) with a 12x12 inches output beam. Aliquots of solution have been withdrawn after 6h and analyzed by HPLC using a Kinetex C18, 150 mm × 4.6 mm × 2.6 µm (Phenomenex, Bologna, Italy) as stationary phase and a mobile phase constituted by A: H2O/CH3CN (80:20) and B: CH3CN. Gradient elution has been performed from 20% to 90% of B in 7.50 minutes and from 90% to 20% of B in 1 minute. The pump flux has been set to 1.5 mL/min. Column has been thermostatted at 40°C during analysis. Results are espressed in Table 3 as percentage of degradation of the product calculated as ratio between the peak area of the analyte at time 0 (Pa0) and after 6h (Pa6) using the following formula: % degradation = (Pa0−Pa6)/Pa0 *100. [formula]

The nature of data set [2]: Photostability (HPLC, solar simulator irradiation). The class given is physicochemical. The note with it: percentage of degradation after 6 h irradiation with solar simulator; 100 ppm in extracellular solution pH 7.4. The protocol: as §1
For data set [3], the target named is T1, Kv7.2 (Homo sapiens, UniProt O43526).
T1 construct: expressed in transfected cells; host or cells: CHO cells (ATCC CRL-9618), transient transfection, pcDNA3.1(+)
In words: Whole-cell patch-clamp on CHO cells transiently expressing Kv7.2. The data set is classed as cell-based. Conditions: CHO cells, mean±SEM, >1 activating, <1 inhibiting. As to the method: According to the experimental protocol, these plasmids were expressed individually or in combination (in particular of Kv7.2 and Kv7.3), together with a plasmid-expressing enhanced green fluorescent protein (Clontech, Palo Alto, CA) used as a transfection marker. Total cDNA in the transfection mixture was kept at 4 µg. CHO cells were grown in 100-mm plastic Petri dishes in Dulbecco's modified Eagle's medium containing 10% fetal bovine serum, nonessential amino acids (0.1 mM), penicillin (50 U/ml), and streptomycin ([…]) in a humidified atmosphere at 37°C with 5% CO2. The cells were plated on glass coverslips coated with poly-L-lysine, and transfected one day after plating with the appropriate cDNA using Lipofectamine 2000 (Life Technologies), according to the manufacturer's protocol.
Currents from CHO cells were recorded at room temperature (20-22°C) 24 hours after trasfection using the whole-cell configuration of the patch-clamp technique, with glass micropipettes of 3-5 MΩ resistance. During the recording, constant perfusion of extracellular solution was maintained. The extracellular solution contained (in mM): 138 NaCl, 2 CaCl2, 5.4 KCl, 1 MgCl2, 10 glucose, and 10 HEPES, at pH 7.4, adjusted with NaOH. The pipette (intracellular) solution contained (in mM): 140 KCl, 2 MgCl2, 10 EGTA, 10 HEPES, 5 Mg^2+-ATP, at pH 7.3-7.4, adjusted with KOH. Currents were recorded using an Axopatch-200A amplifier, filtered at 5 kHz, and digitized using a DigiData 1440A (Molecular Devices). The pCLAMP software (version 10.2, Molecular Devices) was used for data acquisition and analysis. To evaluate the activity of exemplary compounds on Kv7.2 (see Table 1), as well as on Kv7.1, Kv7.2/7.3, Kv7.3 and Kv7.4 channels for selected compounds (see Table 2), the cells were clamped at -80 mV and currents were elicited by 3-s voltage ramps from -80 mV to +20 mV in the presence and absence of each compound. […] The effects of drugs were expressed as shift in the ramp-voltage (ΔV) calculated at 20% of the maximal current (Miceli et al, Proc Natl Acad Sci U S A. 2013, 110(11):4386-91). Curves were fitted using the following equation: y=max/(1+x/EC50)n, where x is the drug concentration, n is the Hill coefficient and max is the maximal value achieved, as previously described (Ambrosino et al, Br J Pharmacol. 2013, 168(6):1430-1444). Data analysis and fit were performed using Sigmaplot (version 12.3).
Ramp-evoked Kv7.2 currents were analyzed by measuring the currents at -40 mV (a membrane potential value close to the activation threshold) and at 0 mV (a membrane potential value at which Kv7.2 conductance is largely saturated). In particular, -40 mV represents the threshold potential for spike initiation and 0 mV represents instead the membrane potential value at which maximal conductance of the channel is achieved.
In Table 1, the effect of exemplary compounds of the invention is expressed as the ratio between current amplitude in the presence (Idrug) and absence (Ictl) of the drug at these two membrane voltages. […]
In general terms: In patch-clamp work, channel activity is measured electrically.

Molecules are shown by their SMILES.

Consider `CC(C)(C)CNC(=S)Nc1ccc2c(c1)CCN2Cc1ccc(F)cc1` [1-(1-(4-fluorobenzyl)indolin-5-yl)-3-neopentylthiourea], for which the Solution stability entry in data set [1] was “A (degradation lower than 20%)”. Moreover, the Photostability entry in data set [2] was “B (20%< degradation<40%)”.

Turning to `O=S(=O)(CC1CCCCC1)Nc1ccc2c(ccn2Cc2ccc(F)cc2)c1` [1-cyclohexyl-N-(1-(4-fluorobenzyl)-1H-indol-5-yl)methanesulfonamide], the Solution stability result in data set [1] was “A (degradation lower than 20%)”. Further, the Photostability result in data set [2] is “A (degradation lower than 20%)”.

For the compound `CCc1cccc(S(=O)(=O)Nc2ccc(NCc3ccc(OC)cc3)cc2)c1` [3-ethyl-N-(4-((4-methoxybenzyl)amino)phenyl)benze nesulfonamide], the Solution stability result in data set [1] was “B (20%< degradation<40%)”. The Photostability result in data set [2] is listed as “C (degradation > 40%)”.

On to `COc1ccc([C@@H](C)Nc2ccc(NS(=O)(=O)C3CCCCC3)cc2)cc1` [(R)-N-(4-((1-(4-methoxyphenyl)ethyl)amino)phenyl) cyclohexanesulfonamide], for which the Solution stability entry in data set [1] is reported as “B (20%< degradation<40%)”. The Photostability entry in data set [2] is reported as “C (degradation > 40%)”.

Turning to `COc1ccc([C@H](C)Nc2ccc(NS(=O)(=O)C3CCCCC3)cc2)cc1` [(S)-N-(4-((1-(4-methoxyphenyl)ethyl)amino)phenyl) cyclohexanesulfonamide], in data set [1], the Solution stability result is “B (20%< degradation<40%)”. Besides, in data set [2], the Photostability entry is “C (degradation > 40%)”.

Regarding `O=C(Cn1ccc2cc(NS(=O)(=O)CC3CCCCC3)ccc21)c1ccc(Br)cc1` [N-(1-(2-(4-bromophenyl)-2-oxoethyl)-1H-indol-5-yl)-1-cyclohexylmethanesulfonamide], in data set [1], the Solution stability entry is recorded as “A (degradation lower than 20%)”. Moreover, the Photostability result in data set [2] was “B (20%< degradation<40%)”.

On to `O=C(Cc1ccc(Cl)cc1)n1ccc2cc(NS(=O)(=O)C3CCCCC3)ccc21` [N-(1-(2-(4-chlorophenyl)acetyl)-1H-indol-5-yl) cyclohexanesulfonamide], for which the Solution stability entry in data set [1] was “A (degradation lower than 20%)”. Besides, the Photostability result in data set [2] was “A (degradation lower than 20%)”.

For `Cc1cc2cc(NS(=O)(=O)C3CCCCC3)ccc2n1Cc1ccc(F)cc1N` [N-(1-(2-amino-4-fluorobenzyl)-2-methyl-1H-indol-5-yl)cyclohexanesulfonamide], in data set [1], the Solution stability result is listed as “A (degradation lower than 20%)”. Besides, the Photostability entry in data set [2] is given as “B (20%< degradation<40%)”.

As to `O=S(=O)(Nc1ccc2c(ccn2Cc2ccc(C(F)(F)F)cc2O)c1)C1CCCCC1` [N-(1-(2-hydroxy-4-(trifluoromethyl)benzyl)-1H-indol-5-yl)cyclohexanesulfonamide], in data set [1], the Solution stability entry was “A (degradation lower than 20%)”. Moreover, in data set [2], the Photostability result is reported as “A (degradation lower than 20%)”.

In the case of `O=S(=O)(Nc1ccc2c(c1)CCN2Cc1ccc(F)cc1)C1CCCCC1` [N-(1-(4-fluorobenzyl)indolin-5-yl)cyclohexanesulfonamide], the Solution stability result in data set [1] is reported as “C (degradation > 40%)”. Besides, the Photostability entry in data set [2] is on record as “C (degradation > 40%)”.

Consider `CCc1cn(Cc2ccc(C(F)(F)F)cc2)c2ccc(NS(=O)(=O)C3CCCCC3)cc12` [N-(3-ethyl-1-(4-(trifluoromethyl)benzyl)-1H-indol-5-yl) cyclohexanesulfonamide], for which, in data set [1], the Solution stability result is recorded as “A (degradation lower than 20%)”. Moreover, in data set [2], the Photostability entry is “A (degradation lower than 20%)”.

With `O=S(=O)(Nc1ccc(NCc2ccc(F)cc2)c(F)c1)C1CCCCC1` [N-(3-fluoro-4-((4-fluorobenzyl)amino)phenyl) cyclohexanesulfonamide], the “Idrug/Ictl at 0 mV” value in data set [3] (ratio of ramp-evoked Kv7.2 current amplitude in presence and absence of drug at 0 mV) was 0.83±0.10. For the same compound, in data set [3] (ratio of ramp-evoked Kv7.2 current amplitude in presence and absence of drug at -40 mV), the “Idrug/Ictl at -40 mV” value is 0.78±0.15.

With `Cc1cc2c(c(C)c1NS(=O)(=O)C1CCCCC1)CCN2Cc1ccc(C(F)(F)F)cc1` [N-(4,6-dimethyl-1-(4-(trifluoromethyl)benzyl)indolin-5-yl)cyclohexanesulfonamide], the Solution stability entry in data set [1] is listed as “A (degradation lower than 20%)”. For the same compound, the Photostability entry in data set [2] is on record as “B (20%< degradation<40%)”.
